Test results published in the NIST ThermoML archive (doi:10.1016/j.jct.2011.03.013).
Values joined by “and” are separate entries in the source; they are usually repeats but may differ in a detail not shown here. Equal values may be shown once. ± gives the expanded uncertainty stated by the source.

Conditions: Crystal; for vapor or sublimation pressure: Calculated from knudsen effusion weight loss; for molar enthalpy of sublimation: 298.15 K, Drop Calorimetry

N#Cc1cccc2ccccc12 [1-cyanonaphthalene]
Conditions	molar enthalpy of sublimation [kcal/mol]	vapor or sublimation pressure
–	21.1 ± 0.813	–
289.1 K	–	0.00012 ± 6e-06 kPa and 0.000125 ± 6e-06 kPa
291.12 K	–	0.000163 ± 8e-06 kPa and 0.000156 ± 8e-06 kPa and 0.000157 ± 8e-06 kPa
293.12 K	–	0.000208 ± 1e-05 kPa and 0.0002 ± 1e-05 kPa and 0.000196 ± 1e-05 kPa
295.12 K	–	0.000275 ± 1.4e-05 kPa and 0.000251 ± 1.3e-05 kPa and 0.000265 ± 1.3e-05 kPa
297.13 K	–	0.000324 ± 1.6e-05 kPa and 0.000319 ± 1.6e-05 kPa
299.13 K	–	0.000426 ± 2.1e-05 kPa and 0.000418 ± 2.1e-05 kPa and 0.000416 ± 2.1e-05 kPa
301.12 K	–	0.000535 ± 2.7e-05 kPa and 0.000532 ± 2.7e-05 kPa and 0.000527 ± 2.6e-05 kPa
303.3 K	–	0.000724 ± 3.6e-05 kPa and 0.00069 ± 3.5e-05 kPa and 0.000686 ± 3.4e-05 kPa
305.12 K	–	0.000843 ± 4.2e-05 kPa and 0.000849 ± 4.2e-05 kPa and 0.00084 ± 4.2e-05 kPa
307 K	–	0.001033 ± 0.0001 kPa and 0.001044 ± 0.00011 kPa and 0.001034 ± 0.0001 kPa

N#Cc1ccc2ccccc2c1 [2-naphthalenecarbonitrile]
Conditions	molar enthalpy of sublimation [kcal/mol]	vapor or sublimation pressure
–	21.7 ± 0.765	–
296.18 K	–	9e-05 ± 5e-06 kPa and 9.2e-05 ± 5e-06 kPa and 9.1e-05 ± 5e-06 kPa
298.11 K	–	0.000115 ± 6e-06 kPa and 0.000117 ± 6e-06 kPa and 0.000116 ± 6e-06 kPa
300.19 K	–	0.000159 ± 8e-06 kPa and 0.000153 ± 8e-06 kPa and 0.000154 ± 8e-06 kPa
302.18 K	–	0.000196 ± 1e-05 kPa and 0.000201 ± 1e-05 kPa and 0.000197 ± 1e-05 kPa
304.1 K	–	0.000245 ± 1.2e-05 kPa and 0.000244 ± 1.2e-05 kPa
306.18 K	–	0.000319 ± 1.6e-05 kPa and 0.000303 ± 1.5e-05 kPa and 0.000304 ± 1.5e-05 kPa
308.15 K	–	0.000391 ± 2e-05 kPa and 0.000388 ± 1.9e-05 kPa and 0.000396 ± 2e-05 kPa
310.09 K	–	0.000487 ± 2.4e-05 kPa and 0.000485 ± 2.4e-05 kPa and 0.000491 ± 2.5e-05 kPa
312.19 K	–	0.000636 ± 3.2e-05 kPa and 0.000617 ± 3.1e-05 kPa and 0.000618 ± 3.1e-05 kPa
314.16 K	–	0.000783 ± 3.9e-05 kPa and 0.000762 ± 3.8e-05 kPa and 0.000803 ± 4e-05 kPa
316.1 K	–	0.000948 ± 4.7e-05 kPa and 0.000947 ± 4.7e-05 kPa and 0.000994 ± 5e-05 kPa
